Laboratory results taken from PubChem BioAssay (NCI).
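Exposure lasted 48 hours, with cells grown in 96-well plates and compounds tested at five concentrations. The concentration for 50% growth inhibition is given as GI50. TGI marks complete inhibition of growth.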

Experiments:
Assay in all cases: inhibition of tumour cell growth, NCI panel, 48 h
[1] = test system: UACC-62 melanoma
[2] = test system: OVCAR-5 ovarian
[3] = test system: BT-549 breast
[4] = test system: CAKI-1 renal
[5] = test system: RXF 393 renal
[6] = test system: NCI-H522 lung
[7] = test system: K-562 leukemia
[8] = test system: SF-539 CNS
[9] = test system: A498 renal
[10] = test system: UACC-257 melanoma
[11] = test system: MDA-MB-435
[12] = test system: SNB-75 CNS
[13] = test system: COLO 205 colon
[14] = test system: KM12 colon
[15] = test system: DU-145 prostate
[16] = test system: T-47D breast
[17] = test system: CCRF-CEM leukemia
[18] = test system: TK-10 renal
[19] = test system: NCI-H460 lung
[20] = test system: HCC-2998 colon
[21] = test system: SF-268 CNS
[22] = test system: NCI-H226 lung
[23] = test system: OVCAR-3 ovarian
[24] = test system: IGROV1 ovarian
[25] = test system: SK-OV-3 ovarian
[26] = test system: MOLT-4 leukemia
[27] = test system: HOP-92 NSCLC
[28] = test system: SF-295 CNS
[29] = test system: SK-MEL-5 melanoma
[30] = test system: PC-3 prostate
[31] = test system: A549 NSCLC
[32] = test system: HCT-116 colon
[33] = test system: HS 578T breast
[34] = test system: HT29 colon
[35] = test system: SK-MEL-28 melanoma
[36] = test system: U251 CNS
[37] = test system: OVCAR-4 ovarian
[38] = test system: MALME-3M melanoma
[39] = test system: UO-31 renal
[40] = test system: ACHN renal
[41] = test system: NCI/ADR-RES ovarian
[42] = test system: NCI-H23 lung
[43] = test system: SK-MEL-2 melanoma
[44] = test system: MDA-MB-231 breast
[45] = test system: SNB-19 CNS
[46] = test system: SW-620 colon
[47] = test system: SR leukemia
[48] = test system: RPMI-8226 leukemia
[49] = test system: 786-0 renal
[50] = test system: OVCAR-8 ovarian
[51] = test system: SN12C renal
[52] = test system: HOP-62 NSCLC
[53] = test system: LOX IMVI melanoma
[54] = test system: MCF7 breast
[55] = test system: HCT-15 colon
[56] = test system: M14 melanoma
[57] = test system: EKVX NSCLC
[58] = test system: HL-60(TB) leukemia

CC(C)C[C@H](NC(=O)[C@@H](Cc1ccccc1)n1ccc(Nc2ccccc2)cc1=O)B(O)O
GI50 [1]: 0.333 µM | TGI [1]: 1.41 µM | GI50 [2]: 1.7 µM | TGI [2]: 8.34 µM | GI50 [3]: 0.289 µM | TGI [3]: 2.35 µM | GI50 [4]: 0.403 µM | TGI [4]: 5.45 µM | GI50 [5]: 0.234 µM | TGI [5]: 0.564 µM | GI50 [6]: 0.242 µM | TGI [6]: 0.821 µM | GI50 [7]: 0.477 µM | TGI [7]: > 100 µM | GI50 [8]: 0.174 µM | TGI [8]: 0.484 µM | GI50 [9]: 0.0262 µM | TGI [9]: 0.36 µM | GI50 [10]: 0.404 µM | TGI [10]: 2.48 µM | GI50 [11]: 0.155 µM | TGI [11]: 0.34 µM | GI50 [12]: 0.3 µM | TGI [12]: 1.83 µM | GI50 [13]: 0.545 µM | TGI [13]: 13.1 µM | GI50 [14]: 0.375 µM | TGI [14]: 1.51 µM | GI50 [15]: 0.783 µM | TGI [15]: 16.7 µM | GI50 [16]: 0.413 µM | TGI [16]: 3.97 µM | GI50 [17]: 0.34 µM | TGI [17]: 5.98 µM | GI50 [18]: 0.269 µM | TGI [18]: 0.98 µM | GI50 [19]: 0.836 µM | TGI [19]: 8.29 µM | GI50 [20]: 0.353 µM | TGI [20]: 1.36 µM | GI50 [21]: 0.385 µM | TGI [21]: 2.31 µM | GI50 [22]: 0.164 µM | TGI [22]: 0.348 µM | GI50 [23]: 0.233 µM | TGI [23]: 0.561 µM | GI50 [24]: 1.33 µM | TGI [24]: 27.9 µM | GI50 [25]: 0.653 µM | TGI [25]: 18.8 µM | GI50 [26]: 0.247 µM | TGI [26]: > 100 µM | GI50 [27]: 0.386 µM | TGI [27]: 2.45 µM | GI50 [28]: 0.285 µM | TGI [28]: 1.22 µM | GI50 [29]: 0.321 µM | TGI [29]: 1.14 µM | GI50 [30]: 2.25 µM | TGI [30]: 19.6 µM | GI50 [31]: 0.525 µM | TGI [31]: 21.6 µM | GI50 [32]: 0.257 µM | TGI [32]: 1.23 µM | GI50 [33]: 0.361 µM | TGI [33]: 7.06 µM | GI50 [34]: 0.342 µM | TGI [34]: 15.5 µM | GI50 [35]: 0.349 µM | TGI [35]: 2.98 µM | GI50 [36]: 0.417 µM | TGI [36]: 12.2 µM | GI50 [37]: 1.18 µM | TGI [37]: 21.3 µM | GI50 [38]: 0.382 µM | TGI [38]: 2.48 µM | GI50 [39]: 0.561 µM | TGI [39]: 3.13 µM | GI50 [40]: 0.358 µM | TGI [40]: > 100 µM | GI50 [41]: 13.4 µM | TGI [41]: > 100 µM | GI50 [42]: 0.835 µM | TGI [42]: 19.4 µM | GI50 [43]: 0.316 µM | TGI [43]: 1.59 µM | GI50 [44]: 0.595 µM | TGI [44]: 4.37 µM | GI50 [45]: 0.714 µM | TGI [45]: > 100 µM | GI50 [46]: 0.32 µM | TGI [46]: 14.4 µM | GI50 [47]: 0.0955 µM | TGI [47]: 2.02 µM | GI50 [48]: 0.154 µM | TGI [48]: 3.87 µM | GI50 [49]: 0.582 µM | TGI [49]: 59 µM | GI50 [50]: 1.88 µM | TGI [50]: 74.6 µM | GI50 [51]: 0.73 µM | TGI [51]: 6.94 µM | GI50 [52]: 1.74 µM | TGI [52]: 7.04 µM | GI50 [53]: 0.151 µM | TGI [53]: 0.409 µM | GI50 [54]: 0.374 µM | TGI [54]: 14.6 µM | GI50 [55]: 1.11 µM | TGI [55]: 17 µM | GI50 [56]: 0.278 µM | TGI [56]: 1.91 µM

COc1ccc2nc3cc([N+](=O)[O-])ccc3c(NCCO)c2c1
GI50 [1]: 1.93 µM | TGI [1]: 5.23 µM | GI50 [2]: 5.55 µM | TGI [2]: 28.1 µM | GI50 [3]: 2.88 µM | TGI [3]: 7.02 µM | GI50 [4]: 10.1 µM | TGI [4]: 30 µM | GI50 [6]: 1.39 µM | TGI [6]: 2.84 µM | GI50 [7]: 1.22 µM | TGI [7]: 3.85 µM | GI50 [8]: 3.35 µM | TGI [8]: 13 µM | GI50 [9]: 12.7 µM | TGI [9]: 32.7 µM | GI50 [10]: 2.61 µM | TGI [10]: 7.68 µM | GI50 [11]: 2.12 µM | TGI [11]: 5.09 µM | GI50 [12]: 2.92 µM | TGI [12]: 16.1 µM | GI50 [13]: 3.31 µM | TGI [13]: 17.4 µM | GI50 [57]: 24.4 µM | GI50 [14]: 2.17 µM | TGI [14]: 6.8 µM | GI50 [15]: 3.62 µM | GI50 [16]: 0.539 µM | TGI [16]: 4.65 µM | GI50 [17]: 2.17 µM | TGI [17]: 13.4 µM | GI50 [19]: 1.66 µM | TGI [19]: 4.9 µM | GI50 [21]: 1.15 µM | TGI [21]: 11.5 µM | GI50 [22]: 3.67 µM | TGI [22]: 14.7 µM | GI50 [23]: 2.41 µM | TGI [23]: 10.2 µM | GI50 [24]: 3.17 µM | TGI [24]: 13.6 µM | GI50 [25]: 2.78 µM | TGI [25]: 14.9 µM | GI50 [26]: 1.14 µM | TGI [26]: 6.34 µM | GI50 [27]: 1.86 µM | TGI [27]: 7.02 µM | GI50 [28]: 3.49 µM | TGI [28]: 15.7 µM | GI50 [29]: 1.61 µM | TGI [29]: 3.26 µM | TGI [30]: 30 µM | GI50 [31]: 4.44 µM | TGI [31]: 23.9 µM | GI50 [32]: 2.2 µM | TGI [32]: 10.5 µM | GI50 [33]: 2.94 µM | TGI [33]: 26.2 µM | GI50 [34]: 2.34 µM | TGI [34]: 5.13 µM | GI50 [35]: 5.41 µM | GI50 [36]: 1.44 µM | GI50 [37]: 1.77 µM | TGI [37]: 3.99 µM | GI50 [39]: 4.75 µM | TGI [39]: 19 µM | GI50 [40]: 4.87 µM | TGI [40]: 31.7 µM | GI50 [41]: 10 µM | GI50 [42]: 2.68 µM | TGI [42]: 9.59 µM | GI50 [44]: 4.4 µM | TGI [44]: 28.1 µM | GI50 [45]: 2.96 µM | TGI [45]: 11.5 µM | GI50 [46]: 4.08 µM | TGI [46]: 25.7 µM | GI50 [47]: 3.13 µM | GI50 [48]: 1.39 µM | TGI [48]: 7.16 µM | GI50 [49]: 2.5 µM | TGI [49]: 11.4 µM | GI50 [50]: 3.15 µM | TGI [50]: 18.8 µM | GI50 [51]: 2.51 µM | TGI [51]: 30.8 µM | GI50 [52]: 2.07 µM | TGI [52]: 5.19 µM | GI50 [53]: 2.51 µM | TGI [53]: 9.18 µM | GI50 [54]: 1.11 µM | TGI [54]: 4.17 µM | GI50 [55]: 7.24 µM | GI50 [58]: 3.03 µM | GI50 [56]: 1.89 µM | TGI [56]: 4.28 µM
